Drawing on patent US20230089867A1, “CYCLIC PENTAMER COMPOUNDS AS PROPROTEIN CONVERTASE SUBTILISIN/KEXIN TYPE 9 (PCSK9) INHIBITORS FOR THE TREATMENT OF METABOLIC DISORDER” (Novartis AG, priority 2018, published 2023), this text covers Max % inhibition and IC50 for nine molecules.

pIC50: −log10 of the molar value.

In the assay the target is human PCSK9 (Homo sapiens, UniProt Q8NBP7). The assay can be described thus: PCSK9 ligand binding TR-FRET assay (interference with binding of human PCSK9 to human LDLR). The note with it: for Max % inhibition: PCSK9 FRET assay, efficacy (Amax), 100% = 1 uM unlabeled human PCSK9, 0% = DMSO; for pIC50: TR-FRET, human PCSK9 Alexa Fluor 647 / human LDLR extracellular domain-Europium Kryptate, read-out: PCSK9 FRET Assay IC50. Put shortly: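 Threefold compound dilutions were pre-incubated 30 min with PCSK9, after which 4 nM Europium Kryptate-tagged human LDLR ectodomain was added for a further 2 h.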
Chain of human PCSK9 (Q8NBP7 153-692): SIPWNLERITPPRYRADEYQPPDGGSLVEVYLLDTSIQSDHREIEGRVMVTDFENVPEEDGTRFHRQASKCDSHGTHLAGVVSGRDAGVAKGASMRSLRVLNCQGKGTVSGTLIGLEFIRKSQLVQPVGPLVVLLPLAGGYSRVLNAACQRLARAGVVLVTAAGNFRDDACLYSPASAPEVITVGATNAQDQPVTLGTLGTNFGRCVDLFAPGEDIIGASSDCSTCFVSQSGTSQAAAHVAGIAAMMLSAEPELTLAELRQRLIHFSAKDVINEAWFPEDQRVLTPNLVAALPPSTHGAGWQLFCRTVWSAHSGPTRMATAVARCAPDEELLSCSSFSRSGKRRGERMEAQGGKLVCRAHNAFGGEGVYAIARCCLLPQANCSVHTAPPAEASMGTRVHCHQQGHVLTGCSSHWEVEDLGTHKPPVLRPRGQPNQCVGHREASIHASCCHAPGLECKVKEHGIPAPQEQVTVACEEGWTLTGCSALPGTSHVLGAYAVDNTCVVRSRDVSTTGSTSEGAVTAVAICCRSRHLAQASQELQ
Chain of human PCSK9 (Q8NBP7 31-152 partner limits assumed): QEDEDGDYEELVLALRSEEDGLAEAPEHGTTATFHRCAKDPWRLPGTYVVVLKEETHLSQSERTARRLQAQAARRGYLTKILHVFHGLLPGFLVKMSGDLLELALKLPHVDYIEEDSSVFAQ

Take `CN(C)Cc1ncc(-c2ccc(Oc3cc(Cl)ccc3CN3C(=O)C[C@@H](Cc4ccccc4)C(=O)N(C)[C@H]4CCCC[C@@H]4NC(=O)C[C@H](Cc4ccc(Cl)cc4)N(C)C(=O)[C@H](CO)NC(=O)[C@H]3CCC(=O)OC(C)(C)C)cc2)n1C` [Compound 287, tert-butyl 3-((4S,7S,10R,14R,16aS,20aS)-14-benzyl-11-(4-chloro-2-(4-(2-((dimethylamino)methyl)-1-methyl-1H-imidazol-5-yl)phenoxy)benzyl)-4-(4-chlorobenzyl)-7-(hydroxymethyl)-5,16-dimethyl-2,6,9,12,15-pentaoxodocosahydrobenzo[l][1,4,7,11,14]pentaazacyclooctadecin-10-yl)propanoate]: the Max % inhibition is reported as 89.28% and the negative-log IC50 (pIC50) is 8.59.
In the case of `COC[C@@H]1NC(=O)[C@@H](CCN(C)C)N(Cc2ccc(Cl)cc2Oc2ccc(-c3cnc(CN(C)C)n3C)cc2)C(=O)C[C@@H](Cc2ccccc2)C(=O)N(C)[C@H]2CCCC[C@@H]2NC(=O)C[C@H](Cc2ccc(Cl)cc2)N(C)C1=O` [Compound 288, (4S,7S,10R,14R,16aS,20aS)-14-benzyl-11-(4-chloro-2-(4-(2-((dimethylamino)methyl)-1-methyl-1H-imidazol-5-yl)phenoxy)benzyl)-4-(4-chlorobenzyl)-10-(2-(dimethylamino)ethyl)-7-(methoxymethyl)-5,16-dimethylhexadecahydrobenzo[l][1,4,7,11,14]pentaazacyclooctadecine-2,6,9,12,15(3H)-pentaone], the Max % inhibition was determined as 87.05% and the negative logarithm of the IC50 (pIC50) was 7.62.
In the case of `C=CC[C@@H]1CC(=O)N(Cc2ccc(Cl)cc2Oc2ccc(-c3cnc(CN(C)C)n3C)cc2)[C@@H](C)C(=O)N[C@@H](COC)C(=O)N(C)[C@@H](Cc2ccc(Cl)cc2)CC(=O)N[C@@H](C)[C@H](C)N(C)C1=O` [Compound 289, (2S,5S,8S,12S,13S,16R)-16-allyl-1-(4-chloro-2-(4-(2-((dimethylamino)methyl)-1-methyl-1H-imidazol-5-yl)phenoxy)benzyl)-8-(4-chlorobenzyl)-5-(methoxymethyl)-2,7,12,13,14-pentamethyl-1,4,7,11,14-pentaazacyclooctadecane-3,6,10,15,18-pentaone], the Max % inhibition amounted to 100.92% and the negative-log IC50 (pIC50) is 9.22.
Turning to `COC[C@@H]1NC(=O)[C@H](C)N(Cc2ccc(Cl)cc2Oc2ccc(-c3cnc(CN(C)C)n3C)cc2)C(=O)C[C@@H](CC2CC2)C(=O)N(C)[C@H]2CCCC[C@@H]2NC(=O)C[C@H](Cc2ccc(Cl)cc2)N(C)C1=O` [Compound 290, (4S,7S,10S,14R,16aS,20aS)-11-(4-chloro-2-(4-(2-((dimethylamino)methyl)-1-methyl-1H-imidazol-5-yl)phenoxy)benzyl)-4-(4-chlorobenzyl)-14-(cyclopropylmethyl)-7-(methoxymethyl)-5,10,16-trimethylhexadecahydrobenzo[l][1,4,7,11,14]pentaazacyclooctadecine-2,6,9,12,15(3H)-pentaone], the Max % inhibition was determined as 79.21% and the negative-log IC50 (pIC50) was 8.44.
As to `COC[C@@H]1NC(=O)[C@H](CCCN(C)C)N(Cc2ccc(Cl)cc2Oc2ccc(-c3cnc(CN(C)C)n3C)cc2)C(=O)C[C@@H](Cc2ccccc2)C(=O)N(C)[C@H]2CCCC[C@@H]2NC(=O)C[C@H](Cc2ccc(Cl)cc2)N(C)C1=O` [Compound 291, (4S,7S,10S,14R,16aS,20aS)-14-benzyl-11-(4-chloro-2-(4-(2-((dimethylamino)methyl)-1-methyl-1H-imidazol-5-yl)phenoxy)benzyl)-4-(4-chlorobenzyl)-10-(3-(dimethylamino)propyl)-7-(methoxymethyl)-5,16-dimethylhexadecahydrobenzo[l][1,4,7,11,14]pentaazacyclooctadecine-2,6,9,12,15(3H)-pentaone], the Max % inhibition worked out at 102.86% and the negative-log IC50 (pIC50) was 8.80.
In the same order, the values of `COC[C@@H]1NC(=O)[C@H](C)N(Cc2ccc(Cl)cc2Oc2ccc(-n3cnc(CN(C)C)c3C)cc2)C(=O)C[C@@H](Cc2ccccc2)C(=O)N(C)[C@H]2CCCC[C@@H]2NC(=O)C[C@H](Cc2ccc(Cl)cc2)N(C)C1=O` [Compound 292, (4S,7S,10S,14R,16aS,20aS)-14-benzyl-11-(4-chloro-2-(4-(4-((dimethylamino)methyl)-5-methyl-1H-imidazol-1-yl)phenoxy)benzyl)-4-(4-chlorobenzyl)-7-(methoxymethyl)-5,10,16-trimethylhexadecahydrobenzo[l][1,4,7,11,14]pentaazacyclooctadecine-2,6,9,12,15(3H)-pentaone] are 113.30% and 8.52.
On to `COC[C@@H]1NC(=O)[C@H](C)N(Cc2ccc(Cl)cc2Oc2ccc(-c3cnc(CN(C)C)n3C)cc2)C(=O)C[C@@H](Cc2ccc(F)c(F)c2F)C(=O)N(C)[C@@H](C)[C@H](C)NC(=O)C[C@H](Cc2ccc(Cl)cc2)N(C)C1=O` [Compound 293, (2S,5S,8S,12S,13S,16R)-1-(4-chloro-2-(4-(2-((dimethylamino)methyl)-1-methyl-1H-imidazol-5-yl)phenoxy)benzyl)-8-(4-chlorobenzyl)-5-(methoxymethyl)-2,7,12,13,14-pentamethyl-16-(2,3,4-trifluorobenzyl)-1,4,7,11,14-pentaazacyclooctadecane-3,6,10,15,18-pentaone], for which the Max % inhibition is on record as 103.68% and the pIC50 is 9.15.
Take `COC[C@@H]1NC(=O)[C@@H](C)N(Cc2ccc(Cl)cc2Oc2ccc(-c3cnc(CN(C)C)n3C)cc2)C(=O)C[C@@H](Cc2ccccc2)C(=O)N(C)[C@H]2CCOC[C@@H]2NC(=O)C[C@H](Cc2ccc(Cl)cc2)N(C)C1=O` [Compound 294, (4S,7S,10R,14R,16aS,20aR)-14-benzyl-11-(4-chloro-2-(4-(2-((dimethylamino)methyl)-1-methyl-1H-imidazol-5-yl)phenoxy)benzyl)-4-(4-chlorobenzyl)-7-(methoxymethyl)-5,10,16-trimethyltetradecahydro-1H-pyrano[3,4-l][1,4,7,11,14]pentaazacyclooctadecine-2,6,9,12,15(3H)-pentaone]: the Max % inhibition worked out at 55.44% and the negative logarithm of the IC50 (pIC50) was 6.98.
For `COC[C@@H]1NC(=O)[C@H](C)N(Cc2ccc(Cl)cc2Oc2ccc(-c3cnc(CN(C)C)n3C)cc2)C(=O)C[C@@H](Cc2ccccn2)C(=O)N(C)[C@@H](C)[C@H](C)NC(=O)C[C@H](Cc2ccc(Cl)cc2)N(C)C1=O` [Compound 295, (2S,5S,8S,12S,13S,16R)-1-(4-chloro-2-(4-(2-((dimethylamino)methyl)-1-methyl-1H-imidazol-5-yl)phenoxy)benzyl)-8-(4-chlorobenzyl)-5-(methoxymethyl)-2,7,12,13,14-pentamethyl-16-(pyridin-2-ylmethyl)-1,4,7,11,14-pentaazacyclooctadecane-3,6,10,15,18-pentaone], in that order: 101.64% and 8.74.

Broadly, the pIC50 is −log10 of the IC50, conventionally taken in molar units.
